One data set deals with HCT-15. Nature of the data set: Antiproliferative activity against human HCT-15 cells assessed as inhibition of cell proliferation incubated for 72 hrs by CCK-8 assay. It is filed as functional, cell-based. To be noted: HCT-15, 72 h. For orientation: Formazan colour is commonly taken as a measure of viable cells.
A further data set has as its system NCI-H358. Nature of the data set: Antiproliferative activity against human NCI-H358 cells assessed as inhibition of cell proliferation incubated for 72 hrs by CCK-8 assay. The format is functional, cell-based. The note with it: NCI-H358, 72 h.
Another data set deals with NCI-H23. Description: Antiproliferative activity against human NCI-H23 cells assessed as inhibition of cell proliferation incubated for 72 hrs by CCK-8 assay. The format is functional, cell-based. To be noted: NCI-H23, 72 h.
The nature of data set [1]: Toxicity in Balb/c mouse implanted with mouse WEHI-3 cells assessed as separation between white and red pulp area in spleen at 100 to 200 mg/kg, po administered (4aR,6aS,7S,9aS,9bS)-2-(((S)-2-(hydroxymethyl)pyrrolidin-1-yl)methyl)-6a-methyl7 ((triisopropylsilyl)oxy)decahydrocyclopenta[f]chromen-3(2H)-one as prodrug once daily and measured after 15 days. The note with it: in vivo, 360 h, dose 100-200 mg/kg, time 15 day. The format is organism-based.

The structures appear in SMILES notation.

For orientation: IC50 means the point on the concentration scale where inhibition reaches its midpoint.

As for `C=C1C[C@@H]2[C@@H](CC[C@]3(C)[C@@H](O[Si](C(C)C)(C(C)C)C(C)C)CC[C@@H]23)OC1=O`, the figures for the IC50 in the data set with HCT-15, in the data set with NCI-H358 and in the data set with NCI-H23 were 8.9 µM, 1.78 µM and 4 µM, respectively. The Activity result in data set [1] is “Non-toxic”.

(Values after ChEMBL document CHEMBL6115002, “Discovery of novel sitolactone derivative leading to PANoptosis and differentiation of acute myeloid leukemia cells” (Eur J Med Chem, 2025).)
